According to patent US10526317B2, “Benzocyanine compounds” (PIERCE BIOTECHNOLOGY, INC., priority 2012, dated 2020):
“Also recorded” adds a separate entry of the source.

Columns and labels:
[1] = system: rabbit IgG immunoglobulin; assay: Functional fluorescence plate assay, dye-GAR conjugates; type: binding; conditions: LiCOR Odyssey, FIGS. 17, 19
Description: Performance of the dye-GAM conjugates, dye-GAR conjugates, and dye-SA conjugates was evaluated in a functional plate assay. Wells of a 96 white opaque plate or black clear-bottom plate were coated with target proteins mouse IgG immunoglobulin, rabbit IgG immunoglobulin, or biotinylated bovine serum albumin (BBSA). One hundred μl mouse or rabbit IgG, or BBSA at a concentration of 10 μg/ml was applied to the corresponding wells in columns 1 and 2. The target proteins were serially diluted 1:1 from the wells in columns 2 to 11 using 100 μl PBS. One hundred μl of the samples from the wells in column 11 were discarded. One hundred μl PBS was added to the wells in column 12. The plates were incubated overnight at 4° C. and then blocked 2×200 μl with Thermo Scientific SuperBlock® Blocking Buffer. The coated plates were washed 2×200 μl with PBS-Tween and 1×200 μl with PBS. Based on the calculated concentrations, conjugates were diluted 1:250 in PBS, added to the corresponding plates (100 μl/well) and then incubated for one hour in the dark. The plates were washed with 2×200 μl with PBS-Tween and 1×200 μl with PBS and filled with PBS buffer (100 μl/well) prior to scanning the white opaque plates on Tecan Safire using 679 nm excitation/702 nm emission or scanning the black clear-bottom plates on LiCor Odyssey at 700 channel, to detect fluorescence intensity.

[2] = system: lamin A; assay: Immunofluorescence detection of lamin A in U2OS cells, dye-GAM secondary (FIG. 29A-C and repeat); type: cell-based, human; conditions: for Mean Total Intensity, Negative control: no primary antibody
Description: In the indicated experiments, the inventive compounds and commercial dye were evaluated for immunofluorescence in a cell based assay using the following protocol. Frozen U20S cell plates which were stored at −80° C. were thawed for 45 minutes at 50° C. Storage buffer (PBS) was removed and the cells were permeabilized for 15 minutes with 0.1% Triton-X100 in 1×PBS buffer (100 μl/well). The cell plate was blocked for 60 minutes in 2% BSA/PBS-0.1% Triton-X100. Primary antibody, either rat anti-Grp94 (5 μg/ml), mouse anti-lamin A (10 μg/ml), or rabbit anti-lamin B1 (10 μg/ml), diluted in 2% BSA/PBS-0.1% Triton-X100 was added to the plate and incubated for 1 hour at room temperature. Control wells contained only 2% BSA/PBS-0.1% Triton-X100 blocker. After incubation, the antibody solution was removed from the plate and the plate was washed three times with 100 μl/well of PBS-0.5% Tween-20 and one time with 100 μl/well PBS. GARat, GAM, or GAR secondary antibodies labeled with various molar excess of the inventive or commercial compound were diluted to 4 μg/ml in PBS and incubated for 1 hour at room temperature. The plates were washed three times with 100 μl/well of PBST and once with 100 μl/well PBS, and Hoechst (diluted to 0.1 μg/ml in PBS) was added to each well (100 μl/well). The plates were scanned on ArrayScan Plate Reader or ToxInsight Instrument.
Quantitative analysis of a repeat experiment of FIG. 29A-C are shown below.

COCC[N+]1=C(/C=C/C=C/C=C2/N(CCCCCC(=O)O)c3ccc4c(S(=O)(=O)[O-])cc(S(=O)(=O)[O-])cc4c3C2(C)C)C(C)(CCCS(=O)(=O)[O-])c2c1ccc1c(S(=O)(=O)[O-])cc(S(=O)(=O)[O-])cc21.[Na+].[Na+].[Na+].[Na+] (stereo not shown) [679 Compound 1/1, 2-{(1E,3E)-5-[3-(5-Carboxypentyl)-1,1-dimethyl-6,8-disulfo-1,3-dihydro-benzo[e]indol-(2E)-ylidene]-penta-1,3-dienyl}-3-(2-methoxy-ethyl)-1-methyl-6,8-disulfo-1-(3-sulfopropyl)-1H-benzo[e]indolium]
Raw Fluorescence Intensity, quenching at high molar excess (in words) [1]: saturating at 25×; also recorded: apparent quenching at 1000 ng/well at 25× | Mean Total Intensity (Average) ([2]; GAM conjugate 4 μg/ml, 2.5 X molar excess): 29229 | Mean Total Intensity (Average) ([2]; GAM conjugate 4 μg/ml, 5.0 X molar excess): 49279 | Mean Total Intensity (Average) ([2]; GAM conjugate 4 μg/ml, 7.5 X molar excess): 28782 | Mean Total Intensity (Average) ([2]; GAM conjugate 4 μg/ml, 10 X molar excess): 30098 | Mean Total Intensity (Average) ([2]; GAM conjugate 4 μg/ml, 15 X molar excess): 48071 | Mean Total Intensity, Negative control ([2]; 2.5 X): 5628 | Mean Total Intensity, Negative control ([2]; 5.0 X): 5859 | Mean Total Intensity, Negative control ([2]; 10 X): 6115 | Mean Total Intensity, Negative control ([2]; 15 X): 7277 | S/B ([2]; repeat experiment, 2.5 X): 8.9 | Mean Total Intensity (Average) ([2]; repeat experiment, 2.5 X molar excess): 77195 | S/B ([2]; repeat experiment, 5 X): 16.2 | Mean Total Intensity (Average) ([2]; repeat experiment, 5 X molar excess): 140772 | S/B ([2]; repeat experiment, 10X): 7.8 | Mean Total Intensity (Average) ([2]; repeat experiment, 10X molar excess): 159948 | S/B ([2]; repeat experiment, 15 X): 12.3 | Mean Total Intensity (Average) ([2]; repeat experiment, 15 X molar excess): 199626 | Mean Total Intensity, Negative control ([2]; repeat experiment, 2.5 X): 8711 | Mean Total Intensity, Negative control ([2]; repeat experiment, 5 X): 8674 | Mean Total Intensity, Negative control ([2]; repeat experiment, 10X): 20481 | Mean Total Intensity, Negative control ([2]; repeat experiment, 15 X): 16277
